# Data taken from US20200215099A1, “NON-ANTICOAGULANT SULFATED OR SULFONATED POLYSACCHARIDES” (Baxalta Incorporated, priority 2012, published 2020).
# “Also recorded” adds a separate entry of the source. Read-outs that look alike come from different tables or passages of the source.
# Assays:
# [1] = system: FVIII-inhibited plasma; experiment: Thrombin generation assay (CAT) in FVIII-inhibited plasma; format: biochemical, human; conditions: for EC50: half maximal thrombin peak
# Protocol: The procoagulant activity of the sulfated polysaccharides was assessed by the Thrombin Generation Assay (TGA). The influence of each sulfated polysaccharide on thrombin generation was measured in duplicate via CAT in a Fluoroskan Ascent® reader (Thermo Labsystems, Helsinki, Finland; filters 390 nm excitation and 460 nm emission) following the slow cleavage of the fluorogenic substrate Z-Gly-GIy-Arg-AMC (Hemker H C. Pathophysiol Haemost Thromb (2003) 33(4):15). To each well of a 96 well microplate (Immulon 2HB, clear U-bottom; Thermo Electron) 80 μL of pre-warmed (37° C.) goat anti FVIII antibody treated human normal plasma pool was added. For triggering thrombin generation by tissue factor, 104 of PPP reagent containing a certain amount of recombinant human tissue factor (rTF) and phospholipid vesicles composed of phosphatidylserine, phosphatidylcholine and phosphatidylethanolamine (final concentration of 4 μM) (Thrombinoscope BV, Maastricht, The Netherlands) was added. For studying the procoagulant activity of sulfated polymers a final TF concentration of 1 pM was used to provide FVIII and TFPI sensitivity of the test system. Just prior to putting the plate into the pre-warmed (37° C.) reader, 10 µL of test or reference sample or calibrator compound was added. Thrombin generation was started by dispensing 204 of FluCa reagent (Thrombinoscope BV, Maastricht, The Netherlands) containing fluorogenic substrate and Hepes buffered CaCl2 (100 mM) into each well and fluorescence intensity was recorded at 37° C.
# The parameters of the resulting thrombin generation curves were calculated using the Thrombinoscope™ software (Thrombinoscope BV, Maastricht, The Netherlands) and thrombin calibrator to correct for inner filter and substrate consumption effects (Hemker H C, Pathophysiol Haemost Thromb (2003) 33(4):15). With the thrombin calibrator as a reference, the molar concentration of thrombin in the test wells was calculated by the software. The thrombin amounts at the peak and peak times of each thrombin generation curve (peak thrombin, nM) were plotted against sulfated polysaccharide concentrations resulting in the procoagulant profile of these compounds. The thrombin generation assay results are illustrated in the figures appended hereto. From these plots half maximal effective concentrations (EC50) values are determined using a sigmoidal curve fit. The EC50 represents the concentration at which the half maximal thrombin peak is reached.
# [2] = system: normal human plasma; experiment: Activated partial thromboplastin time assay (aPTT); format: biochemical; conditions: for Ratio aPTT/CAT: 50% increase clotting time / CAT EC50; for 50% Increase Clotting Time: concentration where clotting time is 50% increased over normal plasma control; for anticoagulant activity (in words): aPTT compared with procoagulant CAT concentration
# Protocol: The aPTT assay was performed to study anticoagulant activities of NASP. In brief, 50 μL of thawed normal human plasma pool (George King Biomedical, Overland Park, Kans.) was mixed with 5 μL of NASP sample (0-60 μg/mL final plasma concentration). NASPs were diluted in imidazole buffer (3.4 g/L imidazole; 5.85 g/L NaCl, pH 7.4) containing 1% albumin (Baxter, Austria). After addition of 50 μL aPTT reagent (STA APTT, Roche) the samples were incubated for 4 min at 37° C. Clotting was initiated by 50 μL of 25 mM CaCl2 solution (Baxter, Austria) and recorded for up to 5 min. All pipetting steps and clotting time measurements were carried out with an ACL Pro Elite (Instrumentation Laboratory, Bedford, Mass.) instrument. Samples were run in duplicate.
# For data analysis, clotting time is plotted against the NASP concentration. Concentrations where the clotting time is 50% increased over the normal plasma control are determined using a linear curve fit.
# [3] = system: FVIII-inhibited human whole blood; experiment: Rotation thromboelastometry (ROTEM); conditions: ROTEM, 0.044 pM TF
# Protocol: NASPs (0.4-11 μg/mL) were studied in fresh citrated human whole blood by rotation thromboelastometry (ROTEM), an assay that allows continuous visco-elastic assessment of whole blood clot formation and firmness. Blood was incubated with anti-human FVIII plasma raised in goat (Baxter Bioscience, Austria) at 50 BU/mL to simulate hemophilic conditions. Clotting was triggered with 0.044 pM tissue factor (TF) (PRP reagent, Thrombinoscope BV) in the presence of 40 μg/mL CTI (Haematologic Technologies Inc., Essex Junction, Vt., USA). Then 300 μL of the pre-warmed (37° C.) FVIII-inhibited blood was recalcified with 20 μL of a 0.2 M CaCl2 solution. Clot formation was monitored using a ROTEM instrument (Pentapharm Munich, Germany) at 37° C. The final assay concentration of rTF was 44 fM. The ROTEM recording was started immediately and measured for at least 120 min. Each blood sample was analyzed in two independent measurements.
# The thromboelastographic parameters of clotting time (CT), clot formation time (CFT) and maximum clot firmness (MCF) were recorded in accordance with the manufacturer's instructions. The first derivative of the thromboelastogram data is plotted to obtain a graph of velocity (mm/s) against time (s). From this graph, the maximum velocity (maxV) and the time at which the maximum velocity is reached (maxV-t) are also determined.
# [4] = molecular target: T1, full-length TFPI (Homo sapiens, UniProt P10646); experiment: Dilute prothrombin time assay with added TFPI (TFPI-dPT); format: biochemical; conditions: for EC50 TFPI-dPT: normal human plasma with rec. FL-TFPI; for reversal of the effect of rec. FL-TFPI (in words): normal human plasma
# T1 construct: 0.5 μg/mL full-length TFPI (aa 1-276, constitutively produced by SKHep1); made in house; host or cells: SKHep1
# T1 sequence (P10646 29-304): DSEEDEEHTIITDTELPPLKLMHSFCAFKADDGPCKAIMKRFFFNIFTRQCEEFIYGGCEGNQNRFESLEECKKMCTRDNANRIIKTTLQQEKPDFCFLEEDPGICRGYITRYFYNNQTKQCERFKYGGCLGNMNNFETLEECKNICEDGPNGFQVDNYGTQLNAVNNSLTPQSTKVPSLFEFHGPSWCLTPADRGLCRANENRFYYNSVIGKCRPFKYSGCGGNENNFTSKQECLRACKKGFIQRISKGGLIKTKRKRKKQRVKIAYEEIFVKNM
# Protocol: A dilute prothrombin time assay with added TFPI (TFPI-dPT) was used to evaluate the TFPI-inhibiting effect of the different NASPs. Pooled normal human plasma (George King Biomedical, Overland Park, Kans.) was pre-incubated with 0.5 μg/mL full-length TFPI (aa 1-276, constitutively produced by SKHep1) and the respective NASP (0-5 μg/mL) for 15 min at RT. TF reagent TriniClot PT Excel S (Trinity Biotech, Wicklow, Ireland), diluted in Hepes-buffered saline 1:200 with 0.5% BSA was added to the plasma samples on an ACL Pro Elite hemostasis analyzer (Instrumentation Laboratory, Bedford, Mass.). Clotting was initiated with 25 mM CaCl2). The volume ratio of plasma:TF:CaCl2 was 1:1:1.
# For data analysis, TFPI-dPT is plotted against the log concentration. Half maximal effective concentrations (EC50) values are determined using a sigmoidal curve fit.
# [5] = system: contact pathway; experiment: CAT in normal plasma with and without CTI; format: biochemical; conditions: for concentration activating the contact pathway: normal plasma, 1 pM hTF, 4 μM PL, ±41 μg/mL CTI
molecule,measurement,setting,value
"Fucoidan [Fucoidan (Control), reference compound]",EC50,"[1]; 1 pM hTF, 4 μM PL",0.3 µg/mL
same,Ratio aPTT/CAT,[2],23.3
same,50% Increase Clotting Time,[2],7.0 µg/mL
"sulfated 6-carboxy-icodextrin [6-carboxy-Icodextrin (unfractionated, batch 2)]",EC50,"[1]; 1 pM hTF, 4 μM PL, listed as sulfated 6-carboxyicodextrin (35 kDa, 10.1% S)",0.07 µg/mL
same,procoagulant activity (in words),"[1]; listed as sulfated 6-carboxyicodextrin (35 kDa, 10.1% S)",procoagulant at very low concentrations
same,Ratio aPTT/CAT,[2],57.0
same,50% Increase Clotting Time,[2],4.0 µg/mL
same,restoration of coagulation (in words),[3]; listed as sulfated 6-carboxy-icodextrin (35 kDa; 10.1% S),restores coagulation in human FVIII-inhibited blood
α-cyclodextrin,procoagulant activity (in words),[1],substantial procoagulant activity
6-carboxyicodextrin [reference compound],procoagulant activity (in words),[1],not procoagulant
sulfated maltopentaose [Maltopentaose (Baxter)],procoagulant activity (in words),[1],good procoagulant activity
same,EC50,"[1]; 1 pM hTF, 4 μM PL",2.4 µg/mL
same,Ratio aPTT/CAT,[2],1.4
same,anticoagulant activity (in words),[2],become anticoagulant within their procoagulant window
same,50% Increase Clotting Time,[2],3.3 µg/mL
same,EC50 TFPI-dPT,[4],0.15 µg/mL
same,reversal of the effect of rec. FL-TFPI (in words),[4]; listed as sulfated maltopentaose (15% S),reverses the effect of rec. FL-TFPI in plasma; also recorded: reverses the effect of recombinant Full Length-Tissue Factor Pathway Inhibitor
same,restoration of coagulation (in words),[3],restore coagulation parameters of FVIII-inhibited whole blood
same,restoration of coagulation (in words),[3]; listed as sulfated maltopentose (15% S),restores coagulation to normal in FVIII-inhibited blood
same,activation of the contact pathway (in words),[5],No activation of the contact pathway
same,concentration activating the contact pathway,[5],> 33000 ng/mL
Cellotriose,EC50,"[1]; 1 pM hTF, 4 μM PL",30.9 µg/mL
"sulfated xylan [sulfated xylan (14.7% S, 22 kD)]",procoagulant activity (in words),[1],procoagulant at low concentrations
same,procoagulant at (concentration),"[1]; 37° C., 1 pM hTF, 4 μM PL",about 0.01 μg/mL
same,EC50,"[1]; 1 pM hTF, 4 μM PL",0.1 µg/mL
same,procoagulant activity (in words),[1]; listed as Sulfated xylan,good procoagulant activity in CAT assays at very low concentrations
OC[C@H]1O[C@@](CO)(O[C@H]2O[C@H](CO)[C@@H](O)[C@H](O)[C@H]2O)[C@@H](O[C@H]2O[C@H](CO)[C@@H](O)[C@H](O)[C@H]2O)[C@@H]1O [melezitose],EC50,"[1]; 1 pM hTF, 4 μM PL",13.5 µg/mL
xylohexaose,EC50,"[1]; 1 pM hTF, 4 μM PL",4.8 µg/mL
"icodextrin [unsulfated icodextrin, reference compound]",procoagulant activity (in words),[1],not procoagulant
sulfated β-cyclodextrin [β-Cyclodextrin (Sigma)],EC50,"[1]; 1 pM hTF, 4 μM PL",1.8 µg/mL
same,EC50,"[1]; 1 pM hTF, 4 μM PL, listed as sulfated β-cyclodextrin",0.7 µg/mL
same,EC50,"[1]; 1 pM hTF, 4 μM PL, listed as β-cyclodextrin",about 2 μg/mL
same,procoagulant activity (in words),[1]; listed as sulfated β-cyclodextrin,good procoagulant activity
same,procoagulant activity (in words),[1]; listed as β-cyclodextrin,substantial procoagulant activity
same,Ratio aPTT/CAT,[2],5.1
same,anticoagulant activity (in words),[2],become anticoagulant within their procoagulant window
same,50% Increase Clotting Time,[2],3.6 µg/mL
same,reversal of the effect of rec. FL-TFPI (in words),[4],reverses the effect of rec. FL-TFPI in plasma
same,EC50 TFPI-dPT,[4],0.08 µg/mL
same,restoration of coagulation (in words),[3],restore coagulation parameters of FVIII-inhibited whole blood
same,restoration of coagulation (in words),[3]; listed as sulfated β-cyclodextrin (18.9% S),restores coagulation to normal in FVIII-inhibited blood
same,activation of the contact pathway (in words),[5],No activation of the contact pathway
same,concentration activating the contact pathway,[5],> 33000 ng/mL
Maltotriose,EC50,"[1]; 1 pM hTF, 4 μM PL",20.6 µg/mL
stachyose,procoagulant activity (in words),[1],substantial procoagulant activity
same,EC50,"[1]; 1 pM hTF, 4 μM PL",2.3 µg/mL
Maltotetraose,procoagulant activity (in words),[1],substantial procoagulant activity
same,EC50,"[1]; 1 pM hTF, 4 μM PL",5.0 µg/mL
Maltopentaose,procoagulant activity (in words),[1],substantial procoagulant activity
same,EC50,"[1]; 1 pM hTF, 4 μM PL",about 2 μg/mL
same,EC50,"[1]; 1 pM hTF, 4 μM PL, listed as maltopentose",2.1 µg/mL
"sulfated 6-carboxy-icodextrin [6-carboxy-Icodextrin (unfractionated, batch 1)]",EC50,"[1]; 1 pM hTF, 4 μM PL, listed as sulfated 6-carboxyicodextrin (21.6 kDa, 10.6% S)",0.04 µg/mL
same,procoagulant activity (in words),"[1]; listed as sulfated 6-carboxyicodextrin (21.6 kDa, 10.6% S)",procoagulant at very low concentrations
same,Ratio aPTT/CAT,[2],80.0
same,anticoagulant activity (in words),[2],non-anticoagulant at its optimal procoagulant concentration
same,50% Increase Clotting Time,[2],3.2 µg/mL
same,EC50 TFPI-dPT,[4],0.26 µg/mL
same,reversal of the effect of rec. FL-TFPI (in words),"[4]; listed as sulfated 6-carboxy-icodextrin (21.6 kDa, 10.6% S)",reverses the effect of rec. FL-TFPI in plasma
Cellotetraose,EC50,"[1]; 1 pM hTF, 4 μM PL",4.8 µg/mL
OC[C@H]1O[C@H](OC[C@H]2O[C@H](O[C@]3(CO)O[C@H](CO)[C@@H](O)[C@@H]3O)[C@H](O)[C@@H](O)[C@@H]2O)[C@H](O)[C@@H](O)[C@H]1O [raffinose],EC50,"[1]; 1 pM hTF, 4 μM PL",7.4 µg/mL
Cellopentaose,procoagulant activity (in words),[1],substantial procoagulant activity
same,EC50,"[1]; 1 pM hTF, 4 μM PL",1.9 µg/mL
